Measured values as given in PMC8765781, “A platform of assays for the discovery of anti-Zika small-molecules with activity in a 3D-bioprinted outer-blood-retina model” (PLoS ONE, 2022).
Read-outs that look alike come from different tables or passages of the source.

Assays:
[1] = system: wild-type ZIKV (Ugandan MR766 strain) in Vero cells; test: ZIKV cytopathic effect (CPE) inhibition qHTS assay, CellTiter-Glo readout; type: cell-based, Zika virus; settings: for AC50 / IC50: Zika virus; for IC50: read-out: ZIKV-infection (CPE, ZIKV Antiviral Assays), IC50
[2] = system: caspase-3 activity induced by ZIKV in Vero cells; test: cells; type: cell-based; settings: Zika virus, read-out: Caspase 3 (ZIKV Antiviral Assays), IC50
[3] = system: ZIKV-RLuc (Cambodian strain FSS13025); test: microbe, parasite or virus in culture; type: cell-based, Zika virus; settings: Zika virus, Vero, 48 h, read-out: Rluc-ZIKV (ZIKV Antiviral Assays), IC50
[4] = system: ZIKV-mCherry (Cambodian strain FSS13025); test: microbe, parasite or virus in culture; type: cell-based, Zika virus; settings: for AC50: Zika virus, Vero
[5] = system: mCherry-ZIKV in human neuronal progenitor cells; test: microbe, parasite or virus in culture; type: cell-based, Zika virus; settings: for AC50 / IC50: Zika virus, Neuronal progenitor cell; for IC50: read-out: NPC (ZIKV Antiviral Assays), IC50
[6] = system: DENV (Dengue virus type 2, strain New Guinea C)
in vitro [7] = settings: African green monkey
in vitro [8] = settings: human
in vitro [9] = settings: human; remark: listed apart in the source
[10] = system: ZIKV-mCherry in 3D-oBRB tissue; type: cell-based, Zika virus
Vero cells = settings: read-out: Cell toxicity counterscreen Vero, CC50
HepG2 cells = settings: read-out: Cell toxicity counterscreen HepG2, CC50
[11] = system: ZIKV-mCherry in iPSC-derived RPE monoculture; type: cell-based, Zika virus
[12] = Vero, read-out: Log AC50 (M) (converted)
[13] = read-out: Log AC50 (M) (converted)

SMILES | CC-v2 (curve class classification of the dose response curve) [1] | Efficacy [1] | AC50 ([1]; Vero) | IC50 ([1]; Vero, 48 h) | AC50 [1, 12] | IC50 ([2]; Vero, 48 h) | IC50 [3] | CC-v2 (curve class of the dose response curve) [4] | Efficacy (difference between neutral response and maximum compound response) [4] | Max Resp (difference between neutral response and response at highest compound concentration) [4] | Efficacy [5] | Max Resp [5] | IC50 [5] | DENV active Yes/No [6] | ZIKV active Yes/No (ZIKV) | WHV active Yes/No (WNV (Kern515/WN02)) | YFV active Yes/No (YFV (YFV 17D)) | CC50 (in vitro [8]) | CC50 at 24 h (in vitro [9]) | CC-v2 (curve class) [5] | other results
CNC(=O)c1cc(Oc2ccc(NC(=O)Nc3cc(C(C)(C)C)nn3-c3ccc4ncccc4c3)c(F)c2)ccn1 [NCGC00263172-09] | -1.2 | -30.756 | 2.91e-05 M | 29.1 µM | 2.91e-05 M | 0.01 µM | 8.27 µM | -1.2 | -48.4 | -100.305 | -38.32 | -37.38 | 44.7 µM | No | No | No | No | > 30 µM | 12.1 µM | – | AC50 [4]: 9.46e-07 M; AC50 [4, 13]: 9.46e-07 M; AC50 [5]: 4.47e-05 M; AC50 [5, 13]: 4.47e-05 M; CC50 at 48 h (in vitro [7]; Vero cells): > 50 µM
CCOC(=O)C1=C(C)NC2=C(C(=O)CC(C)(C)C2)C1c1ccc(-c2ccccc2)cc1 (stereo not drawn) [NCGC00347947-06] | -2.2 | -55.111 | 2.06e-05 M | 20.6 µM | 2.06e-05 M | 33.1 µM | 14.7 µM | 5 | -39.533 | -99.952 | -93.817 | -85.476 | 35.5 µM | No | No | No | No | 22.4 µM | > 30 µM | -2.1 | AC50 [4]: 8.43e-07 M; AC50 [4, 13]: 8.43e-07 M; Antiviral activity in human NPC [5]: moderate antiviral activity; AC50 [5]: 3.55e-05 M; AC50 [5, 13]: 3.55e-05 M; CC50 at 48 h (in vitro [7]): > 50 µM
COC(=O)[C@]12CCCC(C)(C)C1CCc1cc(C(C)C)c(O)c(O)c12 (stereo partly drawn) [NCGC00380281-01] | – | – | – | – | – | – | 25.6 µM | -1.4 | -82.117 | -100.29 | -22.278 | -14.815 | 31.6 µM | No | No | No | No | > 30 µM | > 30 µM | 4 | AC50 ([1]; Vero, from Hill fit of the response curve, 50% of maximum activity response, 194 cherry-picked compounds, protocol name not given, read-out: AC50): 7.18e-06 M; AC50 ([1]; Vero, potency in log units (Molar) from Hill fit of the response curve, 194 cherry-picked compounds, protocol name not given, read-out: Log AC50 (converted)): 7.18e-06 M; IC50 ([1]; Vero cells, wild-type ZIKV MOI 1, 48 hr, unit inferred): 7.18 µM; Efficacy ([1]; difference between neutral response and maximum compound response): -21.701; IC50 ([2]; ZIKV-infected Vero cells, 48 hr, unit inferred): 12.9 µM; CC50 at 48 h (in vitro [7]): > 50 µM
C=C(C)[C@@]12O[C@@H]1[C@@]1(C)C(=CC2=O)CC[C@@H](OC(C)=O)[C@@H]1C [NCGC00380955-01, 3-Acetyl-13-deoxyphomenone] | -1.2 | -61.612 | 4.61e-06 M | 4.61 µM | 4.61e-06 M | 1.66 µM | 2.33 µM | -1.2 | -59.673 | -100.008 | -81.826 | -89.257 | 12.6 µM | Yes | Yes | Yes | Yes | – | – | -1.2 | AC50 [4]: 1.5e-06 M; AC50 [4, 13]: 1.5e-06 M; Antiviral activity in human NPC [5]: effectively inhibited ZIKV in NPC cells; AC50 [5]: 1.26e-05 M; AC50 [5, 13]: 1.26e-05 M; Retention of barrier function (TEER) [10]: 30%; Activity against DENV [6]: pan-activity against all four screened flaviviruses; SI value DENV (CC50/EC50) [6]: 14; Selectivity Index DENV (CC50/EC50) [6]: 14; Activity against ZIKV (ZIKV): pan-activity against all four screened flaviviruses; SI value ZIKV (CC50/EC50) (ZIKV): 22; Selectivity Index ZIKV (CC50/EC50) (ZIKV): 22; Activity against WNV (WNV (Kern515/WN02)): pan-activity against all four screened flaviviruses; SI value WHV (CC50/EC50) (WNV (Kern515/WN02)): 9; Selectivity Index WHV (CC50/EC50) (WNV (Kern515/WN02)): 9; Activity against YFV (YFV (YFV 17D)): pan-activity against all four screened flaviviruses; SI value YFV (CC50/EC50) (YFV (YFV 17D)): 5; Selectivity Index YFV (CC50/EC50) (YFV (YFV 17D)): 5; CC50 (in vitro [7]): > 50 µM
CC1=C[C@H]2O[C@@H]3[C@H](O)[C@@H](O)[C@](C)([C@@]2(CO)C[C@@H]1O)[C@]31CO1 [NCGC00381381-01, T-2 toxin tetraol] | – | – | – | – | – | – | – | – | – | – | – | – | – | – | – | – | – | – | – | – | CC50 (Vero cells): > 50 µM; CC50 (HepG2 cells): > 30 µM
Cc1[nH]c2ccccc2c1C1=C(NCCc2ccc(F)cc2)C(=O)N(C)C1=O [NCGC00386352-05] | -1.2 | -35.912 | 2.06e-05 M | 20.6 µM | 2.06e-05 M | 33.1 µM | 7.37 µM | -1.4 | -71.769 | -66.876 | -103.895 | -78.246 | 39.8 µM | Yes | Yes | No | No | > 30 µM | 17.8 µM | -2.2 | Antiviral activity in human NPC [5]: effectively inhibited ZIKV in NPC cells; AC50 [5]: 3.98e-05 M; AC50 [5, 13]: 3.98e-05 M; Activity against DENV [6]: active against both DENV and ZIKV; SI value DENV (CC50/EC50) [6]: 24; Selectivity Index DENV (CC50/EC50) [6]: 24; Activity against ZIKV (ZIKV): active against both DENV and ZIKV; SI value ZIKV (CC50/EC50) (ZIKV): 23; Selectivity Index ZIKV (CC50/EC50) (ZIKV): 23; CC50 at 48 h (in vitro [7]; Vero cells): > 50 µM
COc1ccc2c(c1)C=C1Cn3c-2c(C2CCCCC2)c2ccc(cc23)C(=O)N[S+](=O)([O-])N(C)CCOCCN(C)C1=O [NCGC00482982-02] | -2.2 | -39.12 | 2.59e-05 M | 25.9 µM | 2.59e-05 M | 1.66 µM | 20.8 µM | -1.4 | -60.775 | -100.29 | -30.77 | -24.808 | 5.01 µM | No | No | No | No | > 30 µM | > 30 µM | 4 | CC50 at 48 h (in vitro [7]; Vero cells): > 50 µM
CO[C@@H]1[C@H](N(C)C(=O)c2ccccc2)C[C@H]2O[C@]1(C)n1c3ccccc3c3c4c(c5c6ccccc6n2c5c31)C(=O)NC4 [midostaurin] | – | – | – | – | – | – | – | – | – | – | – | – | – | – | – | – | – | – | – | – | Retention of barrier function (TEER) [10]: about 40%; Effect on barrier function [11]: exacerbated the barrier function loss
O=C(Nc1ccc([N+](=O)[O-])cc1Cl)c1cc(Cl)ccc1O [niclosamide] | – | – | – | – | – | – | – | – | – | – | – | – | – | – | – | – | – | – | – | – | Identified as active in CPE assay validation set [1]: identified; Effect on barrier function [10]: did not recover the barrier function; Effect on barrier function [11]: did not recover the barrier function
